Experimental data taken from paper PMC7406636, “In vivo and in silico characterization of apocynin in reducing organ oxidative stress: A pharmacokinetic and pharmacodynamic study” (Pharmacology Research & Perspectives, 2020).
Where two headings read alike, the source gives them in different places.

Experiments:
[1] = Time-dependent distribution of apocynin in plasma, urine and tissues after iv bolus injection (HPLC-MS/MS); type: in vivo, mouse
Experimental: All studies were performed in accordance with the protocols approved by the Home Office under the Animals (Scientific Procedures) Act 1986, UK. For the PKPD study, male CD1 mice (Charles River Ltd) at 12 weeks of age with a body weight range between 25 and 30 g were used for the study. Mice were fasted 12 hours before bolus iv injection of apocynin at 5 mg/kg body weight (dosing volume 5 mL/kg) via a lateral tail vein. Control mice were injected with vehicle (solvent of apocynin) at each time points. Four mice/per time points were sacrificed at 0, 1, 2.5, 5, 15, 30, 60 minutes and then at 3, 6, 12, and 24 hours after iv injection of apocynin. Blood samples were collected and centrifuged at 2000 g, 4°C for 10 minutes for plasma collection. Urine samples were collected from bladders. Tissues were harvested for further experiments.
(§1) The detection of apocynin in tissue sample was performed as described previously with some modifications. ^17 In brief, apocynin was detected using an Accela HPLC coupled to a linear ion‐trap tandem mass spectrometry (LTQ‐Orbitrap XL; Thermo‐Fisher Scientific) (HPLC‐MS/MS) in the negative ion mode. Phenacetin (500 ng/mL) was used as an internal standard in every vial. A reversed‐phase 50 × 2.1 mm ID, […], 175 Å pore C18 Hypersil Gold column (Thermo Scientific) was used with injection volume set at 5 µL for the separation of apocynin and phenacetin. Calibration curve used for PK analysis was constructed by spiking apocynin in mouse plasma using eight calibrators ranging from 1 to 10000 ng/mL with great reproducibility and R ^2 ≥ 0.996 for subsequent 5 separate experiments on different days. […] Limit of detection for apocynin was set up at signal to noise ratio ≥ 3, ^18 which is 1 ng/mL in our system. The limitation of quantification was set up at signal to noise ratio ≥ 10, which is 10 ng/mL in our system. Orbitrap component was used for the full scan spectra of apocynin and diapocynin.

[2] = PK simulation and model analysis using Phoenix WinNonlin 8.1 (non-compartmental and compartmental); type: in vivo; details: CD1, mouse, plasma; for AUC / clearance / Vd: iv, 5 mg/kg
Experimental: PK parameters simulation was performed using the Phoenix WinNonlin 8.1 software (Certara.com). […] Data collected from sampling time 1‐360 minutes after iv injection were then pooled (n = 3) and tested against various compartmental models for a best fit using Phoenix WinNonlin 8.1 software. Parameters included the Akaike's information criterion (AIC), Bayesian information criteria (BIC) and corrected AIC (AICc) calculated using the equation: AICc = AIC +2 × nParm (nParm + 1)/(nObs − nParm − 1). ^21

[3] = Apocynin in organs after 16 weeks in drinking water, HFD mouse model (HPLC-MS/MS); type: in vivo; details: male, oral, C57BL/6J mice, HFD 16 weeks, apocynin 5 mmol/L in drinking water
Source text: The mouse model of high‐fat diet (HFD‐induced metabolic disorders and accelerated aging was established as described previously. ^8 Littermates of WT and Nox2KO mice (Jackson Laboratory) on a C57BL/6J background at 7 months of age were randomly assigned (n = 6/per group) to a HFD containing 45% kcal fat (Special Diets Services), or to a normal chow diet (NCD) containing 9.3% kcal fat (LabDiet Ltd) for 16 weeks. Apocynin was supplied in drinking water (5 mmol/L) for the treatment group. Body weights were measured weekly. Mice were sacrificed at 11 months of age and organs were harvested for further experiments.
as §1
The HFD study was performed exactly as described previously. ^8 Littermates of WT and Nox2KO mice on a C57BL/6J background (Jackson Laboratory, USA) were bred in our institution from heterozygotes and genotyped. […] Body weights were measured weekly. […] The body weights were recorded and organs were harvested.

Nox2 = assay: Brain Nox2 expression by immunofluorescence, HFD mouse model; type: in vivo; details: HFD brain sections, apocynin 5 mmol/L in drinking water, vs HFD
Experimental: The experiments were performed exactly as described previously. ^23 Midbrain (containing hippocampus and ventral tegmental area regions) cryosections were used for the experiments. Primary antibodies were used at 1:250 dilution. Bovine serum albumin (2%) was used in the place of primary antibodies as a negative control. Biotin‐conjugated secondary antibody was used at 1:1000 dilution. Specific binding of antibodies was detected by streptavidin‐Cy3. Images were captured using a Nikon fluorescence microscope (Eclipse Ti2‐E). Fluorescence intensities were quantified as described above.

[4] = CD1 mice, iv bolus 5 mg/kg, 5 minutes, per tissue weight

Which “time apocynin remained detectable in urine” value ([1]; CD1 mice, iv bolus 5 mg/kg) does the source give for `COc1cc(C(C)=O)ccc1O` [Apocynin, 4‐hydroxy‐3‐methoxyacetophenone] here?
Its value is “up to 12 hours”.

What about the “plasma apocynin concentration (peak)” value ([1]; CD1 mice, iv bolus 5 mg/kg, 1 minute after injection) of the same compound?
The value was 5494 ± 400 ng/mL.

What about the “brain apocynin concentration (peak)” value ([1]; CD1 mice, iv bolus 5 mg/kg, 1 minute, per tissue weight) of the same compound?
The value was 4603 ± 208 ng/g.

And the “heart apocynin peak concentration” value [1, 4]?
The value was 3161 ± 309 ng/g.

And the “liver apocynin peak concentration” value [1, 4]?
The value was 2853 ± 35 ng/g.

And the “urine apocynin peak concentration” value ([1]; CD1 mice, iv bolus 5 mg/kg, at 30 minutes)?
Its value is 20492 ng/mL.

And the “apocynin detection in urine” value ([1]; CD1 mice, iv bolus 5 mg/kg, until 5 minutes after injection)?
Its value is “undetectable”.

What about the “half-life in the brain compared with plasma” value ([1]; after iv injection) of the same compound?
The value was “longer”.

And the renal clearance ([1]; after iv injection)?
Its renal clearance is “high”.

What about the concentration at 30 min ([1]; male, mouse, brain, CD1 mice, iv bolus 5 mg/kg, read-out: brain apocynin concentration) of the same compound?
Its concentration at 30 min is 103 ± 4 ng/g.

What about the concentration at 5 min ([1]; male, mouse, plasma, CD1 mice, iv bolus 5 mg/kg, 5 minutes) of the same compound?
Its concentration at 5 min is 3240 ± 1560 ng/mL.

What about the concentration at 15 min ([1]; male, mouse, plasma, CD1 mice, iv bolus 5 mg/kg, 15 minutes) of the same compound?
The concentration at 15 min was about 50 ng/mL.

What about the concentration at 30 min ([1]; male, mouse, plasma, CD1 mice, iv bolus 5 mg/kg, read-out: plasma apocynin concentration) of the same compound?
Its concentration at 30 min is about 10 ng/mL.

What about the concentration at 3 h ([1]; male, mouse, urine, CD1 mice, iv bolus 5 mg/kg, 3 hours) of the same compound?
The concentration at 3 h was 230 ± 31 ng/mL.

What about the k el ([2]; NCA, iv 5 mg/kg, n = 3, read-out: Kel (elimination rate constant) (converted)) of the same compound?
Its k el is 0.00379 s⁻¹.

What about the half-life ([2]; NCA, iv 5 mg/kg, n = 3, read-out: t 1/2 (terminal half-life, plasma) (converted)) of the same compound?
The half-life was 3 min.

What about the AUC ([2]; male, 1-CA (one compartmental analysis), 0-6 h, read-out: AUC0‐∞) of the same compound?
The AUC was 681 ng·h/mL.

And the clearance ([2]; male, 1-CA, 0-6 h, read-out: tvCL1 (typical value of compartmental clearance) (converted))?
The clearance was 92.4 mL/min.

What about the Vd ([2]; male, 1-CA, 0-6 h, read-out: tvV1 (typical value of compartmental volume of distribution)) of the same compound?
The Vd was 0.531 L.

And the AUC ([2]; male, 2-CA (two compartmental analysis), 0-6 h, read-out: AUC0‐∞)?
The AUC was 711 ng·h/mL.

What about the clearance ([2]; male, 2-CA, 0-6 h, read-out: tvCL1 (typical value of compartmental clearance) (converted)) of the same compound?
The clearance was 92.3 mL/min.

What about the Vd ([2]; male, 2-CA, 0-6 h, read-out: tvV1 (typical value of compartmental volume of distribution)) of the same compound?
The Vd was 0.531 L.

And the AUC ([2]; male, 3-CA (three compartmental analysis), 0-6 h, read-out: AUC0‐∞)?
Its AUC is 711 ng·h/mL.

What about the clearance ([2]; male, 3-CA, 0-6 h, read-out: tvCL1 (typical value of compartmental clearance) (converted)) of the same compound?
The clearance was 92 mL/min.

And the Vd ([2]; male, 3-CA, 0-6 h, read-out: tvV1 (typical value of compartmental volume of distribution))?
Its Vd is 0.531 L.

What about the AUC ([2]; male, NCA, iv 5 mg/kg, n = 3, read-out: AUC0‐30min) of the same compound?
Its AUC is 643 ng·h/mL.

And the AUC ([2]; male, NCA, iv 5 mg/kg, n = 3, read-out: AUC0‐∞)?
Its AUC is 644 ng·h/mL.

What about the clearance ([2]; male, NCA, iv 5 mg/kg, n = 3, read-out: CL (clearance) (converted)) of the same compound?
The clearance was 129 mL/min/kg.

What about the Vd ([2]; male, NCA, iv 5 mg/kg, n = 3, read-out: V d (central volume of distribution)) of the same compound?
The Vd was 0.569 L/kg.

And the clearance ([2]; male, NCA, iv 5 mg/kg, read-out: CL (systemic clearance) (converted))?
Its clearance is 129 mL/min/kg.

And the C0 ([2]; male, NCA, 0-30 min, iv 5 mg/kg, n = 3, read-out: C 0 (extrapolated plasma concentration at time 0))?
Its C0 is 7360 ng/mL.

What about the Cmax ([2]; male, NCA, 0-30 min, iv 5 mg/kg, n = 3, read-out: C max (maximum plasma concentration)) of the same compound?
Its Cmax is 5490 ng/mL.

And the concentration at 16 weeks ([3]; brain, read-out: brain apocynin concentration at end of treatment)?
Its concentration at 16 weeks is 5370 ± 1610 ng/g.

What about the concentration at 16 weeks ([3]; heart, read-out: heart apocynin concentration at end of treatment) of the same compound?
Its concentration at 16 weeks is 1800 ± 1490 ng/g.

What about the concentration at 16 weeks ([3]; liver, read-out: liver apocynin concentration at end of treatment) of the same compound?
The concentration at 16 weeks was 4820 ± 1340 ng/g.

What about the “effect on brain Nox2 expression” value (Nox2) of the same compound?
Its value is “significantly reduced”.
